# In ChEMBL document CHEMBL6153090:
# Calls of active or inactive are those of the source. The rule behind the calls is not given here.
# Assays:
# [1] = biological target: 5-hydroxytryptamine receptor 2B (Homo sapiens, UniProt P41595); assay: Displacement of [3H]-LSD from human 5-HT2B receptor at 10 uM by cell-based radioligand binding assay
# D(2) dopamine receptor = D(2) dopamine receptor (Homo sapiens, UniProt P14416); assay: Displacement of [3H]-N-Methylspiperone from human D2 receptor at 10 uM by cell-based radioligand binding assay
# D(3) dopamine receptor = D(3) dopamine receptor (Homo sapiens, UniProt P35462); assay: Displacement of [3H]-N-Methylspiperone from human D3 receptor at 10 uM by cell-based radioligand binding assay
# D(4) dopamine receptor = biological target: T1, D(4) dopamine receptor (Homo sapiens, UniProt P21917); assay: Displacement of [3H]-N-methylspiperone from human D4 receptor at 10 uM by cell-based radioligand binding assay
# T1 sequence (P21917 whole entry): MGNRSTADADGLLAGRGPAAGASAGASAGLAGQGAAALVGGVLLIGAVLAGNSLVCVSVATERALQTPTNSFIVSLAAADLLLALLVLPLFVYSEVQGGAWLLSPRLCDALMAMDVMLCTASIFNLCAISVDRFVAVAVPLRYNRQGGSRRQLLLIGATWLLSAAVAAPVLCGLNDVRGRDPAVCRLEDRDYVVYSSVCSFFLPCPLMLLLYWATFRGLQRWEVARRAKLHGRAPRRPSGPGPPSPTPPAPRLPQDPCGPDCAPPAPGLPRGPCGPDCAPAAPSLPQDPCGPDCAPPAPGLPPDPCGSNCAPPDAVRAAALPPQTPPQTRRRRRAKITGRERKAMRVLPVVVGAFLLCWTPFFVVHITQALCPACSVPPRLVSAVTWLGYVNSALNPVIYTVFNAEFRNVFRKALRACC
# [2] = biological target: Sigma non-opioid intracellular receptor 1 (Homo sapiens, UniProt Q99720); assay: Displacement of [3H]-pentazocine from human Sigma 1 receptor at 10 uM by cell-based radioligand binding assay
# [3] = biological target: Sodium-dependent noradrenaline transporter (Homo sapiens, UniProt P23975); assay: Binding affinity to NET receptor (unknown origin) assessed as inhibition constant
# Translocator protein = Translocator protein (Homo sapiens, UniProt P30536); assay: Displacement of [3H]-PK11195 from human PBR receptor at 10 uM by cell-based radioligand binding assay
# [4] = biological target: Sigma intracellular receptor 2 (Homo sapiens, UniProt Q5BJF2); assay: Displacement of [3H]-pentazocine from human Sigma 2 receptor at 10 uM by cell-based radioligand binding assay
# Cannabinoid receptor 1 [5] = biological target: T2, Cannabinoid receptor 1 (Homo sapiens, UniProt P21554); assay: Agonist activity at CB1 receptor in MDA-MB-231 cells at 300 uM by FLIPR assay; assay type: functional, cell-based
# [6] = Activation of GIRK channel (unknown origin) assessed as increase in fluorescence analysis; set-up: species or system Homo sapiens
# [7] = biological target: Kappa-type opioid receptor (Homo sapiens, UniProt P41145); assay: Displacement of [3H]-U69593 human KOR receptor at 10 uM by cell-based radioligand binding assay
# Histamine H1 receptor = Histamine H1 receptor (Homo sapiens, UniProt P35367); assay: Binding affinity to H1 receptor (unknown origin) assessed as inhibition constant
# Cannabinoid receptor 1 [8] = biological target: T2, Cannabinoid receptor 1; assay: Agonist activity at CB1 receptor in human MDA-MB-231 cells by FLIPR assay; assay type: functional, cell-based
# Cannabinoid receptor 1 [9] = biological target: T2, Cannabinoid receptor 1; assay: Agonist activity at CB1 receptor in MDA-MB-231 cells at 100 to 300 uM by FLIPR assay; assay type: functional, cell-based; settings: filed as agonist, dose 100-300 µM
# T2 sequence (P21554 whole entry): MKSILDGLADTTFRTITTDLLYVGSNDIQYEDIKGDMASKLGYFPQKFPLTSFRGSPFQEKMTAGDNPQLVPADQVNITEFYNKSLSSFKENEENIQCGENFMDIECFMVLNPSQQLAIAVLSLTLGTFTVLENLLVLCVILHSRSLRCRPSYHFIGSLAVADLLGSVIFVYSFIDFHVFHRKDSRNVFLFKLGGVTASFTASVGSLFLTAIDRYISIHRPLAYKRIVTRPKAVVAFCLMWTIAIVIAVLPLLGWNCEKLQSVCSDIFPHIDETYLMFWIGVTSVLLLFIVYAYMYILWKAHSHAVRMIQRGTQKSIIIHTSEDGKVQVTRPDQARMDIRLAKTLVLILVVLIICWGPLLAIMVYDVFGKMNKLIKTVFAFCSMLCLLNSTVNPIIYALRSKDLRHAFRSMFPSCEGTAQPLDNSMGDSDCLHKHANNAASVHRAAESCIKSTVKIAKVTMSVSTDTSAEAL
# Sequence of D(2) dopamine receptor (P14416 whole entry): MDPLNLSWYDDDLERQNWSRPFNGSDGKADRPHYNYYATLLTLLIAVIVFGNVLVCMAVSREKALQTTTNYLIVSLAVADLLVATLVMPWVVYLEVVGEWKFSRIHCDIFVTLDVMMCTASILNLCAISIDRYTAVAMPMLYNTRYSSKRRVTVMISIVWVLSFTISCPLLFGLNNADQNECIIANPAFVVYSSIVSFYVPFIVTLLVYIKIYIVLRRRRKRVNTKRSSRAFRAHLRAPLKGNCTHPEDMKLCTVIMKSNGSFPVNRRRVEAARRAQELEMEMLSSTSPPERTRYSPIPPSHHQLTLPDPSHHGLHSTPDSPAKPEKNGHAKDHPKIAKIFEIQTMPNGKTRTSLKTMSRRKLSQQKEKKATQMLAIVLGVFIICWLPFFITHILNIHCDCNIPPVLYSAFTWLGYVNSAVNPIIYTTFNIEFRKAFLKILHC
# Sequence of Sigma intracellular receptor 2 (Q5BJF2 whole entry): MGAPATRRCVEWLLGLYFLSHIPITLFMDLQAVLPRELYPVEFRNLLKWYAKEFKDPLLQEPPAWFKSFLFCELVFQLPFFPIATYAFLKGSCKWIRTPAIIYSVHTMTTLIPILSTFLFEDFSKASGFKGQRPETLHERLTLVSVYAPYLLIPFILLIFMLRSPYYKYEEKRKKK
# Sequence of 5-hydroxytryptamine receptor 2B (P41595 whole entry): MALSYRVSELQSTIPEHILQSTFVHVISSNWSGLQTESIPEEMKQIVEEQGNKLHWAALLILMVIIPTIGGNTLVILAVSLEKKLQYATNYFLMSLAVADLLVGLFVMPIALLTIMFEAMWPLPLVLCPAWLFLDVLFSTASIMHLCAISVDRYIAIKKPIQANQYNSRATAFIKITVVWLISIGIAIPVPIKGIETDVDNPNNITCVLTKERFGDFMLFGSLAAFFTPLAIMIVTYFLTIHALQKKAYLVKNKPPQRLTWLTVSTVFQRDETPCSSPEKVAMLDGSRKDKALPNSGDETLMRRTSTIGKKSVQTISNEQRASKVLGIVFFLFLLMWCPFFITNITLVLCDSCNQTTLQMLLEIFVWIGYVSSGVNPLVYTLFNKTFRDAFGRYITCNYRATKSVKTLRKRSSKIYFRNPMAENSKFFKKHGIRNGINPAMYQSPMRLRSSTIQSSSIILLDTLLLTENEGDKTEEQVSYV
# Sequence of Translocator protein (P30536 whole entry): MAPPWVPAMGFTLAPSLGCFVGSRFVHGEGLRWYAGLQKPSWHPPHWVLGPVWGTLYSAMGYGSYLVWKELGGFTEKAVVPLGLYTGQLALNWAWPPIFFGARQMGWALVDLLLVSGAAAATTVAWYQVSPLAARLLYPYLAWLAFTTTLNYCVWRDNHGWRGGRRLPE
# Sequence of Sigma non-opioid intracellular receptor 1 (Q99720 whole entry): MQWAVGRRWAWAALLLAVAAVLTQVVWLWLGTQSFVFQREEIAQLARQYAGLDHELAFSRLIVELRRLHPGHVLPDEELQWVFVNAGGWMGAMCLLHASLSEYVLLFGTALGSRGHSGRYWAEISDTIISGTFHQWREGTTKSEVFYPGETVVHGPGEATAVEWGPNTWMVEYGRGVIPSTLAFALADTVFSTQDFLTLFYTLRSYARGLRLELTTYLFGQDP
# Sequence of Histamine H1 receptor (P35367 whole entry): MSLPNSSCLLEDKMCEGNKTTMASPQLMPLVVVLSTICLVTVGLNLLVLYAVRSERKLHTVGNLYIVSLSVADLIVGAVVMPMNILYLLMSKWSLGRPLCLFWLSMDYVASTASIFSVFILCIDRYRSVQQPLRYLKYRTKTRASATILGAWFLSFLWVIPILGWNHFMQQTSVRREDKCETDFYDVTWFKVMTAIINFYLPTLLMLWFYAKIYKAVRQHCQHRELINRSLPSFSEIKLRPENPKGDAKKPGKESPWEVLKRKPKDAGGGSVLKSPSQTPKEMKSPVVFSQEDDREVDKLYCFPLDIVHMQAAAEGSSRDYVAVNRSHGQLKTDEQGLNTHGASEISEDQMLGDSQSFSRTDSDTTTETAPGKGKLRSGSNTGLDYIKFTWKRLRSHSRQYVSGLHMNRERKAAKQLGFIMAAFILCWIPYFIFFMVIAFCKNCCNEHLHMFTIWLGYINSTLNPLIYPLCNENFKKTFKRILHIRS
# Sequence of D(3) dopamine receptor (P35462 whole entry): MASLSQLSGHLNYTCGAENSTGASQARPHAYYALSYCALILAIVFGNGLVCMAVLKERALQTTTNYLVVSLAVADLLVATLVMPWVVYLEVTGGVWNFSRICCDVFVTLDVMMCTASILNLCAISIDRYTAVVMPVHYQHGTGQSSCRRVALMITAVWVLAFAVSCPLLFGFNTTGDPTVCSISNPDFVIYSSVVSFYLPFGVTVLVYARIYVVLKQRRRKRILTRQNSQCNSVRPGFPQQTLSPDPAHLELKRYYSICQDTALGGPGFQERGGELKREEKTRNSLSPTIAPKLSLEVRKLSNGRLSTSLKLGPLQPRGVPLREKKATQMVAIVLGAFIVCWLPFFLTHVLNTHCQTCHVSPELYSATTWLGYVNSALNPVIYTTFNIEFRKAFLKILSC
# Sequence of Kappa-type opioid receptor (P41145 whole entry): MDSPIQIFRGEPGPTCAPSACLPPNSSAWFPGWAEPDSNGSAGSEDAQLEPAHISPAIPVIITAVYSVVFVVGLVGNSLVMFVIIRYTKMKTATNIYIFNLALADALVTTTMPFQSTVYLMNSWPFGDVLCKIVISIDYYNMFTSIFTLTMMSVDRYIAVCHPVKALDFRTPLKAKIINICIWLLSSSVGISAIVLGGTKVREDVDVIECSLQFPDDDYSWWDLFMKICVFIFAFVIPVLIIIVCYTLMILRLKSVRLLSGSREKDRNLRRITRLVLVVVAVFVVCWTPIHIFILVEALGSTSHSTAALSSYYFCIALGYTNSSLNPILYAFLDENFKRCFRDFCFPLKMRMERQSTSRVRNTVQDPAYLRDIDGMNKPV
# Sequence of Sodium-dependent noradrenaline transporter (P23975 whole entry): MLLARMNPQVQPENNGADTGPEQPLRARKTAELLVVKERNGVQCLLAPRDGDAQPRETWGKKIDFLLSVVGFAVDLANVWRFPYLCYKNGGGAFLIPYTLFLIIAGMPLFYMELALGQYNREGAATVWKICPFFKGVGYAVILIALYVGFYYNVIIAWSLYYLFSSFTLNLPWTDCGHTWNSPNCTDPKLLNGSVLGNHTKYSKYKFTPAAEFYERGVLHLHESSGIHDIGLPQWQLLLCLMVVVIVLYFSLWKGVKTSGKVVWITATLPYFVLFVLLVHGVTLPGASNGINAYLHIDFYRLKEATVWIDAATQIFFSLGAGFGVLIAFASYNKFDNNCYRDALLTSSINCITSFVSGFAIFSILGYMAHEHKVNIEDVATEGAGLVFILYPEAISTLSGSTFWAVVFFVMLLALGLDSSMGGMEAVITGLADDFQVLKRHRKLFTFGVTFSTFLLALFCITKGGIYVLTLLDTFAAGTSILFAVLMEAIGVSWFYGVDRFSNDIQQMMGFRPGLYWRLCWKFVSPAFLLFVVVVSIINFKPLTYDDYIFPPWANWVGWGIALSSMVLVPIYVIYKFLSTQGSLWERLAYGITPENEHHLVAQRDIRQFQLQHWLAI
Compound,Ki [1] [nM],Ki [4] [nM],other results
C=C(C)[C@@H]1CCC(C)=C[C@H]1c1c(O)cc(CCCCC)c2c1OCC2,3300,–,Ki (D(2) dopamine receptor): 400 nM; Ki (D(3) dopamine receptor): 400 nM; Ki (D(4) dopamine receptor): 500 nM; Ki [2]: 1800 nM; Ki [3]: 5700 nM
C=C(C)[C@H]1CCC(C)=C[C@@H]1c1c(OC)cc(CCCCC)cc1OCCCCCCCCCCCCOc1cc(CCCCC)cc(OC)c1[C@H]1C=C(C)CC[C@@H]1C(=C)C,6600,–,Ki (Translocator protein): 900 nM
C=C(C)[C@@H]1CCC(C)=C[C@H]1c1c(OC)cc(CCCCC)cc1OCCOCCOCCOCCOc1cc(CCCCC)cc(OC)c1[C@@H]1C=C(C)CC[C@H]1C(=C)C,–,8100,–
C=C(C)[C@H]1CCC(C)=C[C@@H]1c1c(O)cc(CCCCC)cc1OCCCCCOc1cc(CCCCC)cc(O)c1[C@@H]1C=C(C)CC[C@H]1C(=C)C,2100,6900,–
Cn1ccc2cc3c(cc21)CCN3C(=O)Nc1cccnc1,4.7,–,–
C=C(C)[C@@H]1CCC(C)=C[C@H]1c1c(O)cc(CCCCC)cc1O,–,–,Activity (Cannabinoid receptor 1 [5]): inactive
C=C(C)[C@@H]1CCC(C)=C[C@H]1c1c(O)cc(CCCCC)cc1OCCCCCCCOc1cc(CCCCC)cc(O)c1[C@@H]1C=C(C)CC[C@H]1C(=C)C,1800,–,Ki (D(2) dopamine receptor): 600 nM
C=C(C)[C@@H]1CCC(C)=C[C@H]1c1c(OC)cc(CCCCC)cc1OCCCCCCOc1cc(CCCCC)cc(OC)c1[C@@H]1C=C(C)CC[C@H]1C(=C)C,8700,5500,–
Cc1c(C(=O)c2cccc3ccccc23)c2cccc3c2n1[C@H](CN1CCOCC1)CO3 [WIN-552122],–,–,EC50 [6]: 13100 nM
C=C(C)[C@@H]1CCC(C)=C[C@H]1c1c(OC)cc(CCCCC)cc1OCCCCCCCCOc1cc(CCCCC)cc(OC)c1[C@@H]1C=C(C)CC[C@H]1C(=C)C,> 10000,2700,–
C=C(C)[C@@H]1CCC(C)=C[C@H]1c1c(O)cc(CCCCC)cc1OCCCCCCCCCCCCOc1cc(CCCCC)cc(O)c1[C@@H]1C=C(C)CC[C@H]1C(=C)C,2400,–,Ki (D(2) dopamine receptor): > 10000 nM; Ki [7]: 1700 nM
C=C(C)[C@@H]1CCC(C)=C[C@H]1c1c(OC)cc(CCCCC)cc1OCCCCOc1cc(CCCCC)cc(OC)c1[C@@H]1C=C(C)CC[C@H]1C(=C)C,–,–,Ki (Histamine H1 receptor): 600 nM
C=C(C)[C@H]1CCC(C)=C[C@@H]1c1c(O)cc(CCCCC)cc1OCCOc1cc(CCCCC)cc(O)c1[C@@H]1C=C(C)CC[C@H]1C(=C)C,1700,800,–
C=C(C)[C@@H]1CCC(C)=C[C@H]1c1c(OC)cc(CCCCC)cc1OCCCCCOc1cc(CCCCC)cc(OC)c1[C@@H]1C=C(C)CC[C@H]1C(=C)C,–,–,EC50 (Cannabinoid receptor 1 [8]): 40000 nM; Activity (Cannabinoid receptor 1 [9]): Active
C=C(C)[C@H]1CCC(C)=C[C@@H]1c1c(O)cc(CCCCC)cc1OCCCCCCCCOc1cc(CCCCC)cc(O)c1[C@@H]1C=C(C)CC[C@H]1C(=C)C,4500,1900,Ki [2]: 1900 nM
C=C(C)[C@@H]1CCC(C)=C[C@H]1c1c(OC)cc(CCCCC)cc1OCCCOc1cc(CCCCC)cc(OC)c1[C@@H]1C=C(C)CC[C@H]1C(=C)C,–,3400,Ki (Translocator protein): 2700 nM; EC50 (Cannabinoid receptor 1 [8]): 42200 nM; Activity (Cannabinoid receptor 1 [9]): Active
C=C(C)[C@H]1CCC(C)=C[C@@H]1c1c(OC)cc(CCCCC)cc1OCCCCCCCOc1cc(CCCCC)cc(OC)c1[C@H]1C=C(C)CC[C@@H]1C(=C)C,–,4700,–
C=C(C)[C@H]1CCC(C)=C[C@@H]1c1c(O)cc(CCCCC)cc1OCCCCCCOc1cc(CCCCC)cc(O)c1[C@@H]1C=C(C)CC[C@H]1C(=C)C,–,700,–
C=C(C)[C@H]1CCC(C)=C[C@@H]1c1c(O)cc(CCCCC)cc1OCCCCOc1cc(CCCCC)cc(O)c1[C@@H]1C=C(C)CC[C@H]1C(=C)C,–,5500,–
